Experimental data: ChEMBL document CHEMBL3400114, “The design, synthesis and biological evaluation of conformationally restricted 4-substituted-2,6-dimethylfuro[2,3-d]pyrimidines as multi-targeted receptor tyrosine kinase and microtubule inhibitors as potential antitumor agents” (Bioorg Med Chem, 2015)

What was measured:
A-431 = assay: Antiproliferative activity against human A431 cells after 48 hrs by sulforhodamine B assay; format: functional, cell-based; conditions: A-431, 48 h
[1] = Antiproliferative activity against human SKOV3-MDR1-M6/6 cells overexpressing wild type beta3 tubulin after 48 hrs by sulforhodamine B assay; format: functional, cell-based; conditions: SKOV3-MDR1-M6/6, 48 h
[2] = molecular target: Platelet-derived growth factor receptor beta (Homo sapiens, UniProt P09619); assay: Inhibition of PDGFR-beta in human U251 cells compound pretreated for 60 min before PDGF-BB stimulation for 10 mins by phosphotyrosine ELISA cytoblot method; format: cell-based, U-251
[3] = molecular target: Epidermal growth factor receptor (Homo sapiens, UniProt P00533); format: cell-based, A-431
[4] = molecular target: Vascular endothelial growth factor receptor 2 (Homo sapiens, UniProt P35968); format: cell-based, U-251
HeLa [5] = assay: Antiproliferative activity against human HeLa cells after 48 hrs by sulforhodamine B assay; format: functional, cell-based
[6] = Growth inhibition of human UACC62 cells after 48 hrs by sulforhodamine B assay; format: functional; conditions: UACC-62, 48 h
U-251 = assay: Growth inhibition of human U251 cells after 48 hrs by sulforhodamine B assay; format: functional; conditions: U-251, 48 h
[7] = Growth inhibition of human […] cells after 48 hrs by sulforhodamine B assay; format: functional
NCI/ADR-RES = assay: Growth inhibition of human NCI/ADR-RES cells after 48 hrs by sulforhodamine B assay; format: functional
[8] = Growth inhibition of human OVCAR3 cells after 48 hrs by sulforhodamine B assay; format: functional; conditions: OVCAR-3, 48 h
SK-MEL-2 = assay: Growth inhibition of human SK-MEL-2 cells after 48 hrs by sulforhodamine B assay; format: functional; conditions: SK-MEL-2, 48 h
[9] = Growth inhibition of human OVCAR8 cells after 48 hrs by sulforhodamine B assay; format: functional; conditions: OVCAR-8, 48 h
[10] = Ratio of EC50 for microtubule depolymerization in rat A10 cells to IC50 for human MDA-MB-435 cells
SK-MEL-5 = assay: Growth inhibition of human SK-MEL-5 cells after 48 hrs by sulforhodamine B assay; format: functional; conditions: SK-MEL-5, 48 h
MDA-MB-435 [11] = assay: Antiproliferative activity against human MDA-MB-435 cells after 48 hrs by sulforhodamine B assay; format: functional, cell-based; conditions: MDA-MB-435, 48 h
SF-268 = assay: Growth inhibition of human SF268 cells after 48 hrs by sulforhodamine B assay; format: functional; conditions: SF-268, 48 h
HeLa [12] = assay: Resistance ratio of IC50 for human HeLa cells overexpressing wild type beta3 tubulin to IC50 for human HeLa cells; format: functional
SNB-75 = assay: Growth inhibition of human SNB75 cells after 48 hrs by sulforhodamine B assay; format: functional; conditions: SNB-75, 48 h
NCI-H23 = assay: Growth inhibition of human NCI-H23 cells after 48 hrs by sulforhodamine B assay; format: functional; conditions: NCI-H23, 48 h
M14 = assay: Growth inhibition of human M14 cells after 48 hrs by sulforhodamine B assay; format: functional; conditions: M14, 48 h
NCI-H460 = assay: Growth inhibition of human NCI-H460 cells after 48 hrs by sulforhodamine B assay; format: functional; conditions: NCI-H460, 48 h
SN12C = assay: Growth inhibition of human SN12C cells after 48 hrs by sulforhodamine B assay; format: functional
HeLa [13] = assay: Antiproliferative activity against human HeLa cells overexpressing wild type beta3 tubulin after 48 hrs by sulforhodamine B assay; format: functional, cell-based
[14] = Growth inhibition of human BT549 cells after 48 hrs by sulforhodamine B assay; format: functional; conditions: BT-549, 48 h
MCF7 = assay: Growth inhibition of human MCF7 cells after 48 hrs by sulforhodamine B assay; format: functional; conditions: MCF7, 48 h
[15] = Growth inhibition of human SF539 cells after 48 hrs by sulforhodamine B assay; format: functional; conditions: SF-539, 48 h
K562 = assay: Growth inhibition of human K562 cells after 48 hrs by sulforhodamine B assay; format: functional; conditions: K562, 48 h
MDA-MB-435 [16] = assay: Growth inhibition of human MDA-MB-435 cells after 48 hrs by sulforhodamine B assay; format: functional; conditions: MDA-MB-435, 48 h
[17] = Growth inhibition of human OVCAR4 cells after 48 hrs by sulforhodamine B assay; format: functional; conditions: OVCAR-4, 48 h
HOP-62 = assay: Growth inhibition of human HOP62 cells after 48 hrs by sulforhodamine B assay; format: functional; conditions: HOP-62, 48 h
SW-620 = assay: Growth inhibition of human SW620 cells after 48 hrs by sulforhodamine B assay; format: functional; conditions: SW-620, 48 h
[18] = Growth inhibition of human LOXIMVI cells after 48 hrs by sulforhodamine B assay; format: functional; conditions: LOX IMVI
CCRF-CEM = assay: Growth inhibition of human CCRF-CEM cells after 48 hrs by sulforhodamine B assay; format: functional
DU-145 = assay: Growth inhibition of human DU145 cells after 48 hrs by sulforhodamine B assay; format: functional; conditions: DU-145, 48 h
[19] = Growth inhibition of human COLO205 cells after 48 hrs by sulforhodamine B assay; format: functional; conditions: COLO 205, 48 h
MDA-MB-231 = assay: Growth inhibition of human MDA-MB-231 cells after 48 hrs by sulforhodamine B assay; format: functional; conditions: MDA-MB-231, 48 h
SNB-19 = assay: Growth inhibition of human SNB19 cells after 48 hrs by sulforhodamine B assay; format: functional; conditions: SNB-19, 48 h
CAKI-1 = assay: Growth inhibition of human Caki1 cells after 48 hrs by sulforhodamine B assay; format: functional; conditions: CAKI-1, 48 h
NCI-H226 = assay: Growth inhibition of human NCI-H226 cells after 48 hrs by sulforhodamine B assay; format: functional; conditions: NCI-H226, 48 h
[20] = Growth inhibition of human HOP92 cells after 48 hrs by sulforhodamine B assay; format: functional; conditions: HOP-92, 48 h
[21] = Antiangiogenic activity in VEGF-165 and bFGF-stimulated chicken embryo chorioallantoic membrane assessed as inhibition of blood vessel formation after 40 hrs by microscopy; format: functional, tissue-based, Gallus gallus
MDA-MB-468 = assay: Growth inhibition of human MDA-MB-468 cells after 48 hrs by sulforhodamine B assay; format: functional; conditions: MDA-MB-468, 48 h
IGROV-1 = assay: Growth inhibition of human IGROV1 cells after 48 hrs by sulforhodamine B assay; format: functional; conditions: IGROV-1, 48 h
SK-OV-3 [22] = assay: Growth inhibition of human SKOV3 cells after 48 hrs by sulforhodamine B assay; format: functional; conditions: SK-OV-3, 48 h
HL-60(TB) = assay: Growth inhibition of human HL-60(TB) cells after 48 hrs by sulforhodamine B assay; format: functional; conditions: HL-60, 48 h
[23] = Growth inhibition of human MOLT4 cells after 48 hrs by sulforhodamine B assay; format: functional; conditions: MOLT-4, 48 h
[24] = Growth inhibition of human HCT116 cells after 48 hrs by sulforhodamine B assay; format: functional; conditions: HCT-116, 48 h
SR = assay: Growth inhibition of human SR cells after 48 hrs by sulforhodamine B assay; format: functional
[25] = Growth inhibition of human EKVX cells after 48 hrs by sulforhodamine B assay; format: functional
NCI-H522 = assay: Growth inhibition of human NCI-H522 cells after 48 hrs by sulforhodamine B assay; format: functional; conditions: NCI-H522, 48 h
[26] = Antiproliferative activity against human SKOV3 cells overexpressing wild type beta3 tubulin after 48 hrs by sulforhodamine B assay; format: functional, cell-based; conditions: SK-OV-3, 48 h
786-0 = assay: Growth inhibition of human 786-0 cells after 48 hrs by sulforhodamine B assay; format: functional; conditions: 786-0, 48 h
SK-OV-3 [27] = assay: Resistance ratio of IC50 for human SKOV3-MDR1-M6/6 cells to IC50 for human SKOV3 cells; format: functional
[28] = Growth inhibition of human RXF393 cells after 48 hrs by sulforhodamine B assay; format: functional; conditions: RXF 393, 48 h
[29] = Growth inhibition of human PC3 cells after 48 hrs by sulforhodamine B assay; format: functional; conditions: PC-3, 48 h
KM12 = assay: Growth inhibition of human KM12 cells after 48 hrs by sulforhodamine B assay; format: functional; conditions: KM12, 48 h
ACHN = assay: Growth inhibition of human ACHN cells after 48 hrs by sulforhodamine B assay; format: functional
[30] = Growth inhibition of human HCT15 cells after 48 hrs by sulforhodamine B assay; format: functional; conditions: HCT-15, 48 h
[31] = Induction of microtubule depolymerization in rat A10 cells after 18 hrs by indirect immunofluorescence assay; format: cell-based
HT-29 = assay: Growth inhibition of human HT-29 cells after 48 hrs by sulforhodamine B assay; format: functional; conditions: HT-29, 48 h
[32] = Growth inhibition of human OVCAR5 cells after 48 hrs by sulforhodamine B assay; format: functional; conditions: OVCAR-5, 48 h
[33] = Growth inhibition of human SF295 cells after 48 hrs by sulforhodamine B assay; format: functional; conditions: SF-295, 48 h
TK-10 = assay: Growth inhibition of human TK10 cells after 48 hrs by sulforhodamine B assay; format: functional; conditions: TK-10, 48 h
[34] = Growth inhibition of human Hs 578T cells after 48 hrs by sulforhodamine B assay; format: functional
Tubulin = Tubulin (Bos taurus, UniProt Q6B856+Q862L2+Q862F3); assay: Inhibition of bovine brain tubulin assembly

Vascular endothelial growth factor receptor 2, sequence (P35968 whole entry): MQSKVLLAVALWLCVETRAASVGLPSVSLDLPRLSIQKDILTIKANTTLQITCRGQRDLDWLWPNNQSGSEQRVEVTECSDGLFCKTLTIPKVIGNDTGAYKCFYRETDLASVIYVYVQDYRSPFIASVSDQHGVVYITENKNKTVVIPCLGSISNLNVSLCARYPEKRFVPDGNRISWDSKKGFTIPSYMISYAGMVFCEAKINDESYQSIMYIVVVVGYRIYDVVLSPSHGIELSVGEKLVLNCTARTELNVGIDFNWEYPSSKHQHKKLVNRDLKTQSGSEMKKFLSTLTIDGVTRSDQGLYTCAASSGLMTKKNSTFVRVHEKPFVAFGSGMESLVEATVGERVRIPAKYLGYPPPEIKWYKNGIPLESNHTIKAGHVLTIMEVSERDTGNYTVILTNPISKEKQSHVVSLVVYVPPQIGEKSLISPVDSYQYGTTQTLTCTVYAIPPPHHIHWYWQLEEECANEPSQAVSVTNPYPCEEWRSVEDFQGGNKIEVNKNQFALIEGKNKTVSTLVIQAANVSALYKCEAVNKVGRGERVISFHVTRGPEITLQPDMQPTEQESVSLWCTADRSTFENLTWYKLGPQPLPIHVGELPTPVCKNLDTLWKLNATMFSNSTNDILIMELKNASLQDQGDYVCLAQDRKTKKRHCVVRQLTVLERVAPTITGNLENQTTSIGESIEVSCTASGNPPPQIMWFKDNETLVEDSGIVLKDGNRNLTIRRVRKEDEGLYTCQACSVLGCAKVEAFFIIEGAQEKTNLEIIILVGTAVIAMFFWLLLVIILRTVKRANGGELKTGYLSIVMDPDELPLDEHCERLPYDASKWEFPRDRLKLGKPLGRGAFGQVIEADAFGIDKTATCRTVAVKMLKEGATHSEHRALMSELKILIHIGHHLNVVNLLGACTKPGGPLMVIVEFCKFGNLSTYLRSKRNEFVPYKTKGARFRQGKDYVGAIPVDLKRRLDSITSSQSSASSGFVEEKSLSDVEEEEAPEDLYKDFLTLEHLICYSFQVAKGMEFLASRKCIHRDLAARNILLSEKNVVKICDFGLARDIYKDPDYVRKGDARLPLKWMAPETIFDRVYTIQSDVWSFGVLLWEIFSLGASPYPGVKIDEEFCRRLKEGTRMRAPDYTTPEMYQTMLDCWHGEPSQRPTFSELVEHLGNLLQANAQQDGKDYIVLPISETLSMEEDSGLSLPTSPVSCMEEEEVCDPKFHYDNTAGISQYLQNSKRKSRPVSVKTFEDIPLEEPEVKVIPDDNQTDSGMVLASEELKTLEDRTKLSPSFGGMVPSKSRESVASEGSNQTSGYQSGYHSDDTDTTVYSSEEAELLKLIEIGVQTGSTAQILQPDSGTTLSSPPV
Platelet-derived growth factor receptor beta, sequence (P09619 whole entry): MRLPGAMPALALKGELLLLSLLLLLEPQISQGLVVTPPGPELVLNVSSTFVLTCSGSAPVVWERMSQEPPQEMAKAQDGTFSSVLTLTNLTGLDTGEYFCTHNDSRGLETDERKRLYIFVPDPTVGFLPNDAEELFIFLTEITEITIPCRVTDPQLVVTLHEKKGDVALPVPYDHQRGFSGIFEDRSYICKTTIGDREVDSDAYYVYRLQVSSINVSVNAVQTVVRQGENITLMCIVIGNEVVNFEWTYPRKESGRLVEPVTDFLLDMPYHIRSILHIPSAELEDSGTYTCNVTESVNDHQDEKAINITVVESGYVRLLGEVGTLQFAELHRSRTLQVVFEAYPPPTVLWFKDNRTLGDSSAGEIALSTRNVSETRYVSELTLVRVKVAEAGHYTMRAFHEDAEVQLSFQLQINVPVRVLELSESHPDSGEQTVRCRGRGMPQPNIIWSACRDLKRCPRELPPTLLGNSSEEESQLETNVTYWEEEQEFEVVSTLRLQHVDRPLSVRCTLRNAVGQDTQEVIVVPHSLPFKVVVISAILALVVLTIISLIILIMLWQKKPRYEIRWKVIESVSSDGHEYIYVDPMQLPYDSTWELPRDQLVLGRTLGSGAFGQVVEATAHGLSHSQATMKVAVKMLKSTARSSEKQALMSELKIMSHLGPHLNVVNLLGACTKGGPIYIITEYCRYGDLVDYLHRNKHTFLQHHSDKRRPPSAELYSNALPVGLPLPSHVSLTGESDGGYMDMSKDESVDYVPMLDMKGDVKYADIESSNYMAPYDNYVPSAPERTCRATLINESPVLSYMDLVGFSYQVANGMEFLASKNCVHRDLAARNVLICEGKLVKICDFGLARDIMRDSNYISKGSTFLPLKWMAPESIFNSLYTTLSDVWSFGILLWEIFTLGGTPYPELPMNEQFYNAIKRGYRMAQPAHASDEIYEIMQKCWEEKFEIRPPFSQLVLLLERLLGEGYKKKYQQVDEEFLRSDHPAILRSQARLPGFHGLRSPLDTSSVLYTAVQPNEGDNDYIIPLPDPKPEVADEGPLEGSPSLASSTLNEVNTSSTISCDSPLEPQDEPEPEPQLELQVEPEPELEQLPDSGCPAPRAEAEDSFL
Epidermal growth factor receptor, sequence (P00533 whole entry): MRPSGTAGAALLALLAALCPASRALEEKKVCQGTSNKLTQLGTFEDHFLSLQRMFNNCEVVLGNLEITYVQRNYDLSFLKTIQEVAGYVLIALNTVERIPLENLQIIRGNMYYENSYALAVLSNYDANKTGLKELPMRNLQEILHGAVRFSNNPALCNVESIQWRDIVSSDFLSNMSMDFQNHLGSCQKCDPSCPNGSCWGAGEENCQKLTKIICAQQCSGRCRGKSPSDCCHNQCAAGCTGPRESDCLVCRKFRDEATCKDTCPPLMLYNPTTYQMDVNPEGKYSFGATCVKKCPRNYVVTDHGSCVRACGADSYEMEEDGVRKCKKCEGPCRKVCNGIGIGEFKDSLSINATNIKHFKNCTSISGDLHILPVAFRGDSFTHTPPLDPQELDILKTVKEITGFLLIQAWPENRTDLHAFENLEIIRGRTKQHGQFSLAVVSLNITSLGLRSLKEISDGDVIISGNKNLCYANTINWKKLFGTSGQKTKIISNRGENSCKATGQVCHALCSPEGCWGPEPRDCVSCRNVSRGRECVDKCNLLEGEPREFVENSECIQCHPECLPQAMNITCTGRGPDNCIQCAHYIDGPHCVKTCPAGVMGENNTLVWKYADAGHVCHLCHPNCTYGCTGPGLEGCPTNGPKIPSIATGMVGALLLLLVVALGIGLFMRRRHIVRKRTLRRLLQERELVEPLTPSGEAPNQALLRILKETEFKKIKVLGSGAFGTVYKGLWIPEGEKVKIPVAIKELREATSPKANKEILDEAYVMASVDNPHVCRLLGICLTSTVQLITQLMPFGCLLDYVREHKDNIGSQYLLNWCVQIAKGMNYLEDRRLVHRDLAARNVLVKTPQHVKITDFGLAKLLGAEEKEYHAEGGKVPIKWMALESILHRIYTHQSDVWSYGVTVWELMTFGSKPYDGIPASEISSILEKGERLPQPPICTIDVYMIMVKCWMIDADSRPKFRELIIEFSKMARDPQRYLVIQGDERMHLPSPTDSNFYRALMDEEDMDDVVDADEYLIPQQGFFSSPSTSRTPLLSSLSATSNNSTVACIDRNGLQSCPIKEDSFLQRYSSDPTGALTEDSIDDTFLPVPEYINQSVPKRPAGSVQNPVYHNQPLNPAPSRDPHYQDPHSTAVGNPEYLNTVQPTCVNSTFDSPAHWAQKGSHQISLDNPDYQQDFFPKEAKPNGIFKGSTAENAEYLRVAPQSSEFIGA

CCOc1ccc(N(C)c2nc(C)nc3oc(C)cc23)cc1
IC50 (A-431): 92.9 nM | IC50 [1]: 30.8 nM | IC50 [2]: 132 nM | IC50 [3]: > 500 nM | IC50 [4]: 121 nM

Cc1nc(N(C)c2ccc3c(c2)CCO3)c2cc(C)oc2n1
IC50 (HeLa [5]): 105 nM | GI50 [6]: 61.3 nM | GI50 (U-251): 39.7 nM | IC50 (A-431): 38.3 nM | GI50 [7]: 54.2 nM | GI50 (NCI/ADR-RES): 26.5 nM | IC50 [1]: 155 nM | GI50 [8]: 24.5 nM | GI50 (SK-MEL-2): 26.4 nM | GI50 [9]: 63 nM | Ratio [10]: 6 | GI50 (SK-MEL-5): 31.4 nM | IC50 (MDA-MB-435 [11]): 96.2 nM | GI50 (SF-268): 13.9 nM | Ratio IC50 (HeLa [12]): 0.9 | GI50 (SNB-75): 30.4 nM | GI50 (NCI-H23): 43.9 nM | GI50 (M14): 34.8 nM | GI50 (NCI-H460): 42 nM | GI50 (SN12C): 97.2 nM | IC50 (HeLa [13]): 94 nM | GI50 [14]: 77.2 nM | GI50 (MCF7): 40.2 nM | GI50 [15]: 31.6 nM | GI50 (K562): 31.7 nM | GI50 (MDA-MB-435 [16]): 14 nM | GI50 [17]: 83.4 nM | GI50 (HOP-62): 39.6 nM | GI50 (SW-620): 41.6 nM | GI50 [18]: 45.6 nM | GI50 (CCRF-CEM): 58.1 nM | GI50 (DU-145): 44.1 nM | GI50 [19]: 40.3 nM | GI50 (MDA-MB-231): 148 nM | GI50 (SNB-19): 56.5 nM | GI50 (CAKI-1): 40.1 nM | GI50 (NCI-H226): 162 nM | GI50 [20]: 45.8 nM | IC50 [21]: 14000 nM | GI50 (MDA-MB-468): 22.1 nM | GI50 (IGROV-1): 62.9 nM | GI50 (SK-OV-3 [22]): 37.6 nM | GI50 (HL-60(TB)): 27.6 nM | GI50 [23]: 76.7 nM | GI50 [24]: 45.1 nM | GI50 (SR): 36.6 nM | GI50 [25]: 70 nM | GI50 (NCI-H522): 12.9 nM | IC50 [26]: 120 nM | GI50 (786-0): 80.4 nM | Ratio IC50 (SK-OV-3 [27]): 1.3 | GI50 [28]: 21.2 nM | GI50 [29]: 52.2 nM | GI50 (KM12): 40.1 nM | GI50 (ACHN): 64.2 nM | GI50 [30]: 38.9 nM | EC50 [31]: 606 nM | GI50 (HT-29): 32.4 nM | GI50 [32]: 262 nM | GI50 [33]: 30.5 nM | GI50 (TK-10): 50.2 nM | GI50 [34]: 31 nM

COc1ccc(N(C)c2nc(C)nc3oc(C)cc23)cc1OC
IC50 (A-431): 9.7 nM

COc1cc(N(C)c2nc(C)nc3oc(C)cc23)cc(OC)c1OC
IC50 (A-431): > 300 nM | IC50 [21]: > 300000 nM | EC50 [31]: > 10000 nM

COc1ccc(N(C)c2nc(C)nc3oc(C)cc23)cc1
IC50 (Tubulin): 2400 nM | EC50 [31]: 103 nM

CC(=O)O[C@H]1C(=O)[C@@]2(C)[C@H]([C@H](OC(=O)c3ccccc3)[C@]3(O)C[C@H](OC(=O)[C@H](O)[C@@H](NC(=O)c4ccccc4)c4ccccc4)C(C)=C1C3(C)C)[C@]1(OC(C)=O)CO[C@@H]1C[C@@H]2O [PACLITAXEL]
IC50 (MDA-MB-435 [11]): 3.3 nM | IC50 (HeLa [13]): 32.9 nM | IC50 [26]: 6.3 nM
